Results from patent US12582649B2, “Compositions and methods for hair follicle regeneration” (Washington University, priority 2020, dated 2026).
“Also recorded” adds a separate entry of the source.

Assays:
hair follicles [1] = experiment: Hair follicle regeneration / new hair growth after a single intradermal injection in telogen back skin; type: in vivo, mice
Experimental: (§1) The second telogen of C57BL/6J mice starts at day 49 after birth and it will last around 5 weeks (Muller-Rover et al., 2001). On day 48 after birth, the mice were shaved. On day 49 after birth, wt and Trpv4^−/− mice were intradermally injected with 30-μM GSK1016790A (GSK101, a selective TRPV4 agonist) (50 μl), which is diluted in saline from the 100 mM stock solution. GSK2193874 (GSK219, a selective TRPV4 antagonist) (25 mg·kg^−1, 200 μl dilution in saline from 50 mg·ml^−1 stock solution) (Thorneloe et al., 2012) or PD98059 (10 mg·kg^−1, 200 μl dilution in saline from 37.5 mg·ml^−1 stock solution) was applied through intraperitoneal injection on day 48 after birth or 1 hour prior to GSK1016790A injection. Insulin syringes with 30-G needle (UltiCare) were used for intradermal injection and 1-ml Sub-Q syringes with 26-G needle (BD) were used for intraperitoneal injection. Seventeen days after GSK1016790A injection, the mice were killed and the skin samples of the injection area were collected for analysis. In mice with newly generated hair, generally, there was a small patch of skin with dark color and longer hair shaft at the injection sites compared with that in the surrounding area.
Dorsal skin samples were fixed overnight at 4° C. in Zamboni's fixative (2% paraformaldehyde, 15% [v/v] saturated picric acid, 0.1-M PB, pH 7.3), dehydrated in ethanol, embedded in paraffin and sectioned at 10 μm. Haematoxylin and eosin (H&E) staining was performed according to standard protocols to analyze the hair follicle cycle stages as described, including the length of the hair follicle, the size, and location of dermal papilla and the position of the hair shaft and the inner root sheath (Muller-Rover et al., 2001). For immunofluorescence detection, sections were deparaffinized, rehydrated, and subjected to antigen retrieval in 10-mM citrate buffer (pH 6.0). After blocking, sections were stained with primary antibody against Ki67 (1:1,000; Thermo Fisher Scientific, Cat #PA1-29503, RRID: AB_1955602), phosphop-p44/42 MAPK (1:200; Cell Signaling Technology, Cat #4370S, RRID: AB_2315112), p44/42 MAPK (1:1,000; Cell Signaling Technology, Cat #4695, RRID: AB_390779), keratin 14 (1:1,000; BioLegend, […], RRID: AB_2616962) and keratin 15 (1:1,000; BioLegend, Cat #833901, RRID: AB_2564970) at 4° C. overnight in a humid chamber, followed by incubation for 1 h at room temperature (RT) with Cy3-conjugated secondary antibody (1:500; Jackson ImmunoResearch, Cat #111-005-003, RRID: AB_2337913) and Alexa Fluor 488-conjugated secondary antibody (1:500; Jackson ImmunoResearch, Cat #703-005-155, RRID: AB_2340346). Nuclei were stained with DAPI (SouthernBiotech). The Immuno-related procedures used comply with the recommendations made by the British Journal of Pharmacology Alexander et al., 2018.

[2] = tested on: Bmp6, Fgf18, Fgf7, Wnt16 and Nog mRNA; experiment: Quantitative RT-PCR of whole skin lysates for anagen-inhibiting and anagen-promoting factors; type: in vivo, mice
Experimental: as §1
For real-time PCR, skin sample was collected 24 h after GSK1016790A injection. Total RNA was extracted from mouse skin tissue using RNeasy kit (Qiagen, Germantown, MD, […]) according to the manufacturer's instructions. RNA was treated with DNase I (Invitrogen, Carlsbad, CA, USA), and the cDNA was synthesized in vitro using ThermoScript® RT-PCR System kit (Invitrogen). Reactions were carried out in a volume of 20 μl per reaction containing 10-μl SYBR Green master mix (2×) (Roche, Indianapolis, IN, USA), 0.5-μl cDNA, 1.2-μl 5-μM primer mix, and 8.3-μl water using StepOnePlus real-time PCR system (Applied Biosystems, Foster City, CA, USA). Relative expression of genes was normalized to GAPDH and calculated using the 2^−ΔΔct methods.

ERK1/2 = ERK1/2 phosphorylation in skin (western blot, immunofluorescence); type: in vivo, mice; conditions: for effect of pretreatment on GSK1016790A-induced ERK1/2 phosphorylation: intraperitoneal pretreatment one hour before GSK1016790A, skin harvested 15 min after
Experimental: as §1, with “Seventeen days after GSK1016790A injection, the mice were killed and the skin samples of the injection area were collected for analysis.” left out
(§2) Dorsal skin samples were fixed overnight at 4° C. in Zamboni's fixative (2% paraformaldehyde, 15% [v/v] saturated picric acid, 0.1-M PB, pH 7.3), dehydrated in ethanol, embedded in paraffin and sectioned at 10 μm. Haematoxylin and eosin (H&E) staining was performed according to standard protocols to analyze the hair follicle cycle stages as described, including the length of the hair follicle, the size, and location of dermal papilla and the position of the hair shaft and the inner root sheath (Muller-Rover et al., 2001). For immunofluorescence detection, sections were deparaffinized, rehydrated, and subjected to antigen retrieval in 10-mM citrate buffer (pH 6.0). […]
The skin was lysed in RIPA lysis and extraction buffer (Thermo Fisher Scientific, USA). Following cell protein quantitation, 10 μg of protein per sample were subjected to 12% SDS-PAGE. […]

TRPV4 = biological target: T1, TRPV4 (Mus musculus, UniProt Q9EPK8); experiment: Normal hair follicle cycling under pharmacological inhibition of TRPV4 (H&E of back skin); type: in vivo; conditions: Trpv4+/+ mice treated with GSK219
T1 construct: back skin sections from Trpv4^+/+ mice, Trpv4^+/+ mice treated with GSK219 and Trpv4^−/− mice; from tissue; host or cells: back skin of living wild-type C57BL/6J (Trpv4+/+) mice
T1 sequence (Q9EPK8 whole entry): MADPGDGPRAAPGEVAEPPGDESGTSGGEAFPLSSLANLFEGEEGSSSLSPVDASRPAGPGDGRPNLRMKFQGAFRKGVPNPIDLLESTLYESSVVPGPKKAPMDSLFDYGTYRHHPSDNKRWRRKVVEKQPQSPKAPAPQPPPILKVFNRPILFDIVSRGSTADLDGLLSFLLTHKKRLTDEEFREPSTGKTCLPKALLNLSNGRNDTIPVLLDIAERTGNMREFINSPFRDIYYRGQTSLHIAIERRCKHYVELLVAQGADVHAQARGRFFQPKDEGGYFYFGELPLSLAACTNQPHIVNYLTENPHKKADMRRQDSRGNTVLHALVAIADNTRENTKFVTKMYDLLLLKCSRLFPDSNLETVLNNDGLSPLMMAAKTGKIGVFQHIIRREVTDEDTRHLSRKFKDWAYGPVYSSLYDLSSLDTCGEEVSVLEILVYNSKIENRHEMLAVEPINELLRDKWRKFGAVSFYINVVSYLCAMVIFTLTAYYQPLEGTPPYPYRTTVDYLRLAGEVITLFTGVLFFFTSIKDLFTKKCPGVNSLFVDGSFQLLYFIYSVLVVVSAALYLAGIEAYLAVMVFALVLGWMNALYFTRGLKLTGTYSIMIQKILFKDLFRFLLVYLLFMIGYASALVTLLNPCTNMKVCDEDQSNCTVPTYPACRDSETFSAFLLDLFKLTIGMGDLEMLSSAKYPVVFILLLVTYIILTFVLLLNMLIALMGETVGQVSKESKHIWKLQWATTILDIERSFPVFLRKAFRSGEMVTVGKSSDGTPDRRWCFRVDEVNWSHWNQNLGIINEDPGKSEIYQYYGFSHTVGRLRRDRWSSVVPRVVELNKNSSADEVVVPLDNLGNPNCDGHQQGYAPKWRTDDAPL
Experimental: FIG. 6. Top: hair growth cycle in mice. Bottom: representative images of hematoxylin and eosin (H&E) staining of back skin sections from Trpv4^+/+ mice, Trpv4^+/+ mice treated with GSK219 and Trpv4^−/− mice on Day 15, 21, 36, 40, 49. Scale bar=100 μm.
as §2

hair follicles [3] = experiment: Topical application on tape-stripped shaved back skin, hair growth; type: in vivo, mice
From the text: FIG. 10. […] Images were taken on day 12 after GSK101 treatment.
A TRPV4-dependent increase in hair growth was observed (FIG. 10).
Tape stripping was used to remove the stratum corneum to facilitate GSK101 entry into the skin. The agent can be applied with no additional agent or skin treatment method. The effect was removed by genetic ablation of the TRPV4 function.

[4] = tested on: hair follicle keratinocytes; experiment: Ki67 immunofluorescence staining of back skin sections (proliferation of hair follicle keratinocytes and stem cells); type: in vivo; conditions: Trpv4+/+ mice, 48 h after single intradermal injection, vs vehicle
Experimental: as §1, with “Seventeen days after GSK1016790A injection, the mice were killed and the skin samples of the injection area were collected for analysis.” left out
Dorsal skin samples were fixed overnight at 4° C. in Zamboni's fixative (2% paraformaldehyde, 15% [v/v] saturated picric acid, 0.1-M PB, pH 7.3), dehydrated in ethanol, embedded in paraffin and sectioned at 10 μm. […]

[5] = tested on: human epidermal keratinocytes HaCaT cells; conditions: cited from earlier work
[6] = tested on: cultured human hair follicles; conditions: cultured human hair follicles ex vivo; cited from earlier work
[7] = Cre+ K14Cre, Trpv4f/f mice vs wt
[8] = Cre+ K14Cre, Trpv4f/f mice, after injection
[9] = Trpv4+/+ mice, whole skin, 24 h after injection

COc1cccc(-c2cc(=O)c3ccccc3o2)c1N [PD98059]
hair growth after GSK1016790A injection in pretreated mice (hair follicles [1]; PD98059 10 mg·kg−1 intraperitoneal pretreatment, 17 days after GSK1016790A injection): completely absent | effect of pretreatment on GSK1016790A-induced decrease of Bmp6 and Fgf18 and increase of Fgf7, Wnt16 and Nog expression ([2]; PD98059 pretreatment vs vehicle control): completely reversed | effect of pretreatment on GSK1016790A-induced ERK1/2 phosphorylation (ERK1/2): severely attenuated

O=C(NC1(c2ccccc2)CC1)c1c(CN2CCC(N3CCCCC3)CC2)c(-c2cccc(C(F)(F)F)c2)nc2cc(Br)ccc12 [GSK2193874]
effect of pretreatment on GSK1016790A-induced hair regeneration (hair follicles [1]; GSK2193874 25 mg·kg−1 intraperitoneal pretreatment, wt mice): completely abolished | effect of pretreatment on GSK1016790A-induced changes in Bmp6, Fgf18, Fgf7, Wnt16 and Nog expression ([2]; GSK2193874 pretreatment, Trpv4+/+ mice): significantly attenuated | normal transition of first telogen to second anagen (TRPV4): no effect | effect of pretreatment on GSK1016790A-induced ERK1/2 phosphorylation (ERK1/2): severely attenuated

CC(C)C[C@H](NC(=O)c1cc2ccccc2s1)C(=O)N1CCN(C(=O)[C@H](CO)NS(=O)(=O)c2ccc(Cl)cc2Cl)CC1 [GSK1016790A, N-((1S)-1-{[4-((2S)-2-{[(2,4-dichlorophenyl)sulfonyl]amino}-3-hydroxypropanoyl)-1-piperazinyl]carbonyl}-3-methylbutyl)-1-benzothiophene-2-carboxamide]
new hair growth (newly generated hair coat) at the injection site (hair follicles [1]; 7-week-old wt (Trpv4+/+) mice, single intradermal injection (30 μM, 50 μl), 17 days after injection, vs vehicle): newly generated hair coat could be clearly observed at the injection site in a dose-dependent manner; also recorded: persistently induced hair growth | hair regeneration in macrophage-specific TRPV4 conditional KO mice (hair follicles [1]; Cx3cr1Cre, Trpv4f/f mice vs Cre− wt littermates, single intradermal injection): comparable hair regeneration | hair regeneration in keratinocyte-specific TRPV4 conditional KO mice (hair follicles [1]; K14Cre, Trpv4f/f mice, single intradermal injection): completely absent | GSK1016790A-induced hair regeneration in global TRPV4 KO mice (hair follicles [1]; Trpv4−/− mice, single intradermal injection): completely absent | hair follicle elongation (hair follicle length) (hair follicles [1]; wt mice, single intradermal injection, H&E of back skin, vs vehicle): more than fourfold | hair cycle stage of hair follicles (hair follicles [1]; wt mice, single intradermal injection, vehicle: telogen or anagen I): most of the hair follicles had entered anagen Ill-VI phases | hair growth after topical application (hair follicles [3]; 100 μM applied once, tape stripping of shaved back, day 12, vs vehicle): facilitate hair growth; also recorded: increased hair growth | hair growth effect of topical application under genetic ablation of TRPV4 function (hair follicles [3]; TRPV4 ablated mice, tape stripping): removed | Bmp6 mRNA expression level ([2]; Cre+ K14Cre, Trpv4f/f mice): did not affect | Fgf18 mRNA expression level ([2]; Cre+ K14Cre, Trpv4f/f mice): did not affect | Fgf7 expression compared with wt mice injected with GSK1016790A [2, 7]: significantly decreased | Nog expression compared with wt mice injected with GSK1016790A [2, 7]: significantly decreased | Wnt16 expression compared with wt mice injected with GSK1016790A [2, 7]: significantly decreased | Fgf7 expression [2, 8]: still increased | Nog expression [2, 8]: still increased | Wnt16 expression [2, 8]: still increased | Bmp6 mRNA transcripts [2, 9]: significant decrease | Fgf7 mRNA transcripts [2, 9]: markedly increased | Fgf18 mRNA transcripts [2, 9]: significant decrease | Nog mRNA transcripts [2, 9]: markedly increased | Wnt16 mRNA transcripts [2, 9]: markedly increased | GSK1016790A-induced changes in Bmp6, Fgf18, Fgf7, Wnt16 and Nog expression under genetic ablation of TRPV4 ([2]; Trpv4−/− mice, 30 μM intradermal, 24 h): significantly attenuated | number of Ki67-positive K14-expressing hair follicle keratinocytes [4]: significantly increased; also recorded: increase | number of Ki67-positive K15-expressing hair follicle stem cells in the bulge [4]: increased number; also recorded: increase | membrane currents ([5]; HaCaT cells (PMID: 29293584)): activated membrane currents | IL-6 production ([5]; HaCaT cells (PMID: 30022772)): induced | IL-8 production ([5]; HaCaT cells (PMID: 30022772)): induced | ERK1/2 phosphorylation (ERK1/2; 15 min after a single intradermal injection, skin at injection site): significantly increased | number of apoptotic cells [6]: increased | ratio of proliferating cells [6]: decreased
